How the values were obtained:
[1] = compared with other common anti-inflammatory agents; cited from earlier work
[2] = system: carrageenan-induced foot edema in rats; assay: Rat Carrageenan Foot Pad Edema Test; format: in vivo, Male Sprague-Dawley rats; conditions: @ 10 mg/kg body weight; oral; foot volume three hours after carrageenan injection
Method: The carrageenan foot edema test was performed with materials, reagents and procedures essentially as described by Winter, et al., (Proc. soc. Exm. Biol. Med., 111, 544 (1962)). Male Sprague-Dawley rats were selected in each group so that the average body weight was as close as possible. Rats were fasted with free access to water for over sixteen hours prior to the test. The rats were dosed orally (1 mL)with compounds suspended in vehicle containing 0.5% methylcellulose and 0.025% surfactant, or with vehicle alone. One hour later a subplantar injection of 0.1 mL of 1% solution of carrageenan/sterile 0.9% saline was administered and the volume of the injected foot was measured with a displacement plethysmometer connected to a pressure transducer with a digital indicator. Three hours after the injection of the carrageenan, the volume of the foot was again measured. The average foot swelling in a group of drug-treated animals was compared with that of a group of placebo-treated animals and the percentage inhibition of edema was determined (Otterness and Bliven, Laboratory Models for Testing NSAIDs, in Non-steroidal Anti-Inflammatory Drugs, (J. Lombardino, ed. 1985)).

SMILES | ulcerogenic [1] | % Inhibition (rat paw edema) [2] [%]
O=C(O)Cc1c(-c2ccccc2)c(-c2ccccc2)nn1-c1ccccc1 [Isofezolac, 1,3,4-triphenyl-1H-pyrazole-5-acetic acid] | as ulcerogenic as other common anti-inflammatory agents | –
CS(=O)(=O)c1ccc(-c2c(-c3ccc(F)cc3)c(C(F)(F)F)nn2-c2ccccc2)cc1 [Example 1, 4-(4-Fluorophenyl)-5-[4-(methylsulfonyl)phenyl]-1-phenyl-3-(trifluoromethyl)pyrazole] | – | 20

Reference: patent US5639777A, “1,4,5-triphenyl pyrazolyl compounds for the treatment of inflammation and inflammation-related disorders” (G.D. Searle & Co., priority 1996, dated 1997)
